This note sets out measurements from patent publication US9750788B2 (priority 2013, dated 2017).

Converted amounts (≈) assume the structure as drawn. Square brackets hold non-standard residues; d marks the D form. Peptide text beside a SMILES is read from it. Aib = CC(C)(N)C(=O)O

Series [1] is described as follows: physchem. In kind it is physicochemical.
Series [2] is classed as physicochemical. The following applies: buffer, 168 h. An excerpt:
The chemical stability is expressed as “% remaining peptide”.

Series [3] relates to blood glucose of diabetic db/db mice. The experiment in a line: Glucose lowering in female diabetic dbdb-mice. In kind it is in vivo. The following applies: 100 μg/kg s.c. Here is the method: Female diabetic dbdb-mice (BKS.Cg− +Leprdb/+Leprdb/OlaHsd) 10 weeks of age at study start were used. Mice were habituated to feeding and housing conditions for at least 2 weeks. 7 days prior to study start, HbA1c were determined to allocate mice to groups, aiming to spread low, medium and high HbA1c-values and in consequence the group-means (n=8), as equally as possible. On the day of study, food was removed, directly before sampling for baseline glucose assessment (t=0 min) Immediately afterwards, compounds or vehicle (phosphor buffered saline, PBS) were administered subcutaneously, 100 μg/kg, 10 ml/kg. Afterwards, blood samples were drawn by tail tip incision at 15, 30, 60, 90, 120, 150, 180, 240, 360, 480 min and 24 h. Food was re-offered after the 480 min-sampling. Data were analysed by 2-W-ANOVA on repeated measurements, followed by Dunnett's test as post-hoc assessment, level of significance p<0.05.

The nature of series [4]: in vivo. The settings on record: mouse, sc, 1 mg/kg.
Description: Mice were dosed 1 mg/kg subcutaneously (s.c.). The mice were sacrificed and blood samples were collected after 0.25, 0.5, 1, 2, 4, 8, 16 and 24 hours post application. Plasma samples were analyzed after protein precipitation via liquid chromatography mass spectrometry (LC/MS). PK parameters and half-life were calculated using WinonLin Version 5.2.1 (non-compartment model).

The solubility is the dissolved amount per volume that the medium holds. What is called Cmax is the peak of the concentration-time curve. One may read the half-life as the time in which the quantity being followed falls by half. High values mean slow loss, low ones fast loss. Regarding `CC[C@H](C)[C@H](NC(=O)[C@H](Cc1ccccc1)NC(=O)[C@H](CC(C)C)NC(=O)[C@H](CCCNC(=N)N)NC(=O)[C@@H](NC(=O)[C@H](C)NC(=O)[C@H](CCC(=O)O)NC(=O)[C@H](CCCCN)NC(=O)[C@H](CCC(=O)O)NC(=O)[C@H](CC(C)C)NC(=O)[C@H](CC(C)C)NC(=O)[C@H](CCCCN)NC(=O)[C@H](CO)NC(=O)[C@H](CC(C)C)NC(=O)[C@H](CC(=O)O)NC(=O)[C@H](CO)NC(=O)[C@@H](NC(=O)[C@H](Cc1ccccc1)NC(=O)[C@@H](NC(=O)CNC(=O)[C@H](CCC(=O)O)NC(=O)C(C)(C)NC(=O)[C@@H](N)Cc1ccc(O)cc1)[C@@H](C)O)[C@@H](C)O)C(C)C)C(=O)N[C@@H](CCC(=O)O)C(=O)N[C@@H](Cc1c[nH]c2ccccc12)C(=O)N[C@@H](CC(C)C)C(=O)N[C@@H](CCCCN)C(=O)N[C@@H](C)C(=O)NCC(=O)NCC(=O)N1CCC[C@H]1C(=O)N[C@@H](CO)C(=O)N[C@@H](CO)C(=O)NCC(=O)N[C@@H](C)C(=O)N1CCC[C@H]1C(=O)N1CCC[C@H]1C(=O)N1CCC[C@H]1C(=O)N[C@@H](CO)C(N)=O` [SEQ ID NO: 8, Y-Aib-EGTFTSDLSKLLEKEAVRLFIEWLKAGGPSSGAPPPS-NH2] (H-Y[Aib]EGTFTSDLSKLLEKEAVRLFIEWLKAGGPSSGAPPPS-NH2), the solubility at 2 h in series [1] (pH 4.5) came out at 320 µg/mL (≈ 76.9 µM). Besides, the solubility at 2 h in series [1] (pH 7.4) was 270 µg/mL (≈ 64.8 µM). Also, the “Stability (pH 4.5), % remaining peptide” value in series [2] (pH 4.5) amounted to 100%. In addition, the “Stability (pH 7.4), % remaining peptide” value in series [2] was determined as 100%. Moreover, the “maximal effect, glucose reduction” value in series [3] (at t=30 min) was approximately 13 mmol/L. Also, the “reduction of glucose compared to vehicle control” value in series [3] (from t=30 min to 24 h, p<0.05) is reported as “statistical significant reduction of glucose”. Moreover, in series [4], the peak level (Cmax) was 2980 ng/mL and the half-life was 1.9 h.

In turn, `CC[C@H](C)[C@H](NC(=O)[C@H](Cc1ccccc1)NC(=O)[C@H](CC(C)C)NC(=O)[C@H](CCCNC(=N)N)NC(=O)[C@@H](NC(=O)[C@H](C)NC(=O)[C@H](CCC(=O)O)NC(=O)[C@H](CCC(=O)O)NC(=O)[C@H](CCC(=O)O)NC(=O)[C@H](CC(C)C)NC(=O)[C@H](CC(C)C)NC(=O)[C@H](CCCCN)NC(=O)[C@H](CO)NC(=O)[C@H](CC(C)C)NC(=O)[C@H](CC(=O)O)NC(=O)[C@H](CO)NC(=O)[C@@H](NC(=O)[C@H](Cc1ccccc1)NC(=O)[C@@H](NC(=O)CNC(=O)[C@H](CCC(=O)O)NC(=O)C(C)(C)NC(=O)[C@@H](N)Cc1ccc(O)cc1)[C@@H](C)O)[C@@H](C)O)C(C)C)C(=O)N[C@@H](CCC(=O)O)C(=O)N[C@@H](Cc1c[nH]c2ccccc12)C(=O)N[C@@H](CC(C)C)C(=O)N[C@@H](CCCCN)C(=O)N[C@@H](C)C(=O)NCC(=O)NCC(=O)N1CCC[C@H]1C(=O)N[C@@H](CO)C(=O)N[C@@H](CO)C(=O)NCC(=O)N[C@@H](C)C(=O)N1CCC[C@H]1C(=O)N1CCC[C@H]1C(=O)N1CCC[C@H]1C(=O)N[C@@H](CO)C(N)=O` [SEQ ID NO: 10, Y-Aib-EGTFTSDLSKLLEEEAVRLFIEWLKAGGPSSGAPPPS-NH2] (H-Y[Aib]EGTFTSDLSKLLEEEAVRLFIEWLKAGGPSSGAPPPS-NH2) returned a solubility at 2 h in series [1] (pH 7.4) of 990 µg/mL (≈ 238 µM). Moreover, in series [2], the “Stability (pH 7.4), % remaining peptide” value amounted to 100%.
